# Laboratory results taken from publication PMC13181795, “Structural Basis for BD1-Preferring 2,4-Disubstituted Pyrimidine BRDT Inhibitors” (Journal of Medicinal Chemistry, 2026).
# Test: Metabolic stability in male mouse liver microsomes
# Assay type: in vitro ADME
structure (smiles),measurement,value
O=C(O)Cc1ccccc1Nc1c(Cl)cccc1Cl [Diclofenac],Scaled-up CLint,7.8 L/h/kg
